From publication PMC10139035, “Carborane-Containing Hydroxamate MMP Ligands for the Treatment of Tumors Using Boron Neutron Capture Therapy (BNCT): Efficacy without Tumor Cell Entry” (International Journal of Molecular Sciences, 2023) come the findings set out here.

Data set [1] deals with SCC VII tumor cells. The experiment in a line: In vitro BNCT survival study, colony formation assay. It is filed as cell-based. Here is the method:
SCC VII tumor cells were incubated and stabilized in a logarithmic subconfluent growth phase at 36 °C in a 5% carbon dioxide atmosphere in a 10 cm diameter tissue culture dishes (100 mm tissue culture dishes; Corning Glass Works, Corning, NY, USA) containing Eagle’s MEM containing 10% heat-inactivated fetal bovine serum and 2 mM L-glutamine. The U87 delta EGFR glioma cell line, kindly provided by Dr. H. Michiue (Okayama University, Okayama, Japan), which stably expressed the constitutively active EGFRvIII, was used in the colony formation assay. […] The thermal neutron fluence was determined by averaging two gold foils symmetrically attached to the surface of the Teflon tube along the direction of the incidence of the thermal neutrons. The neutron absorbed dose (Gy) was calculated using the flux-to-dose conversion factor [61]. […] Ten days later, the colonies were fixed with 70% ethanol and stained with 5% Giemsa solution for quantitative visualization by the naked eye.

For data set [2], the system named is SCC VII tumor cells. In words: Cytotoxicity: IC50, growth inhibition after 3 days of continuous exposure. The data set is classed as cell-based. To be noted: 3 days continuous exposure, read-out: IC50 (cell toxicity). On the procedure:
Suspensions of 105 SCC VII cells/200 μL MEM containing 10% FCS (fetal calf serum) were incubated for 3 days in 96-well microplate with various concentrations of 1 and 2 (B1 and B2). After 3 days of exposure, the cell were washed with PBS and fixed with 70% ethanol. The SCC VII cells were stained with 5% Giemsa solution for 15 min. After removing the solution, the cells were dried in air and Giemsa stained cells were uniformized by the addition of 100 μL of alcohol. The optical absorbance at 595 nm was measured by optical densitometer.

Data set [3] concerns U87 delta EGFR glioma cells. The experiment in a line: In vitro BNCT survival study, colony formation assay. The conditions noted are these: for Survival rate: 20 ppm of 10B in BPA; for Thermal neutron fluence yielding the D37 value: BPA 20 ppm 10B. The data set is classed as cell-based. Here is the method: SCC VII tumor cells were incubated and stabilized in a logarithmic subconfluent growth phase at 36 °C in a 5% carbon dioxide atmosphere in a 10 cm diameter tissue culture dishes (100 mm tissue culture dishes; Corning Glass Works, Corning, NY, USA) containing Eagle’s MEM containing 10% heat-inactivated fetal bovine serum and 2 mM L-glutamine. The U87 delta EGFR glioma cell line, kindly provided by Dr. H. Michiue (Okayama University, Okayama, Japan), which stably expressed the constitutively active EGFRvIII, was used in the colony formation assay. The cells were maintained in Dulbecco’s modified Eagle’s medium (DMEM; FUJIFILM Wako Pure Chemical Corporation, Richmond, VA, USA with 10% fetal bovine serum (FBS), penicillin, and streptomycin at 37 °C in a humidified atmosphere containing 5% CO2. The stock solutions of B1 and B2 were obtained by dissolving 6 mg of them in 1 ml DMSO, respectively. For SCC VII cells, after adding 100 μL of a boron solution, the cells were incubated for boron loading into tumor cells for 5 h. […] The ^10B (0.143 ppm ^10B for 1 (B1) and 0.101 ppm for 2 (B2) in the medium was reconfirmed by PGS (prompt γ spectroscopy) in the SCC VII colony forming assay. After boron loading, the cells were trypsinized and washed three times by PBS, and 5 × 10^3 cells/mL MEM (FCS+) were irradiated with thermal neutrons in column-shaped Teflon tubes (1 × 3 cm). […] The irradiation times were 0, 15, 30 and 45 min. The thermal neutrons flux was 1.8 × 10^9 cm^−2·s^−1. The thermal neutron fluence was determined by averaging two gold foils symmetrically attached to the surface of the Teflon tube along the direction of the incidence of the thermal neutrons. The neutron absorbed dose (Gy) was calculated using the flux-to-dose conversion factor [61]. The chemical composition of the tumors was assumed to be 10.7% hydrogen, 12.1% carbon, 2% nitrogen, 71.4% oxygen, and 3.8% others. The γ-ray dose rate, including secondary γ-rays, was 1.0 × 10^−2 Gy·min^−1, according to a thermoluminescence dosimeter attached to the surface of a Teflon tube containing 1 mL MEM. After thermal neutron exposure, 300 or 900 cells were placed in three Corning 60 mm tissue culture dishes containing 6 mL MEM to examine colony formation. Ten days later, the colonies were fixed with 70% ethanol and stained with 5% Giemsa solution for quantitative visualization by the naked eye.

The next data set addresses MMP-9 (Homo sapiens, UniProt P14780). The experiment in a line: MMP-9 fluorometric inhibitor screening kit assay. To be noted: read-out: IC50 MMP-9; triplicate, S.D.
In the next data set the target is T1, MMP-2 (Homo sapiens, UniProt P08253).
T1 sequence (P08253 110-660): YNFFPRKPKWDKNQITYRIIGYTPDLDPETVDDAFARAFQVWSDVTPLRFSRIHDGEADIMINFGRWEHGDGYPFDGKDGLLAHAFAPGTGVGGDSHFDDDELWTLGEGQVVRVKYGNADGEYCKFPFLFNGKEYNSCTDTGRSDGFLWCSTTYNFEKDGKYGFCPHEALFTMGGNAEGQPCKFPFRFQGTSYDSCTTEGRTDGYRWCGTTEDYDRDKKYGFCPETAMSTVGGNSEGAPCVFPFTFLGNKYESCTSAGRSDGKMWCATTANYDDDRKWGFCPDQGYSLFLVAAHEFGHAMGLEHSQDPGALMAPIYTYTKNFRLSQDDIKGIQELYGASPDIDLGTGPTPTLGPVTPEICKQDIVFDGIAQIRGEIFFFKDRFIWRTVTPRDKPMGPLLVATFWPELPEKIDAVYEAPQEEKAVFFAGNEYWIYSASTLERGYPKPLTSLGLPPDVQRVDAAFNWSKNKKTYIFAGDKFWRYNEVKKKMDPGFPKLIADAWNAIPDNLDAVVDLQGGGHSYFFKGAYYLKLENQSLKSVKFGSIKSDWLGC
The experiment in a line: MMP-2 fluorometric inhibitor screening kit assay. The conditions noted are these: read-out: IC50 MMP-2; triplicate, S.D.

Sequence of MMP-9 (P14780 94-707): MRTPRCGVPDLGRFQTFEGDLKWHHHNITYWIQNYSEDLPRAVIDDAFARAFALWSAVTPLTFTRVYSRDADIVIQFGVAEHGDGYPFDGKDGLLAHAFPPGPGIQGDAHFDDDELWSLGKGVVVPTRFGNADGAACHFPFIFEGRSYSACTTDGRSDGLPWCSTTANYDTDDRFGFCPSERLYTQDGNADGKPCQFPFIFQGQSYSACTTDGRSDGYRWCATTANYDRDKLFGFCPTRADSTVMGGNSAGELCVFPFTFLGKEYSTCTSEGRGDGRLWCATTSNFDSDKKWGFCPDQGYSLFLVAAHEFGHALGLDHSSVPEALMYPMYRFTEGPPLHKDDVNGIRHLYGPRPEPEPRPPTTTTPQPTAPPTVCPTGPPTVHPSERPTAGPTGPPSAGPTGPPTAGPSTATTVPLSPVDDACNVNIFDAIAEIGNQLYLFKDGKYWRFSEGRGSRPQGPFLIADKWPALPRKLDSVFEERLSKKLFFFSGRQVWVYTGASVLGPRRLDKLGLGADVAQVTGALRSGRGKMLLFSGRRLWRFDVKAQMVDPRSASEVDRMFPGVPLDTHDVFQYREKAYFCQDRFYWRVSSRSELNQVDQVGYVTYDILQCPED
Experimental for MMP-2: (§1) MMP-2, MMP-9, and MMP-13 were assayed for inhibition using the respective abcam: ab139447, ab139449, and ab139451 Inhibitor Screening Kits. The supplied kits were adaptable to a microplate reader protocol designed for observing a fluorometric change associated with the cleavage of substrate analog at 37 °C. Briefly, each assay or control included a combined volume of 100 µL. […] The enzymes were then diluted in the assay buffer and 20 µL of each was added to give an assay concentrations of 0.042 nM (MMP-2), 1.9 nM (MMP-9), and 1.86 nM (MMP-13). […] The reaction was excited at 328 nm and emission detected at 420 nm. Fluorescence was measured every 60 s for a total of 960 s.
(§2) For each assay, data were truncated at 1000 s and offsets were applied to bring the initial fluorescence of each assay to zero. Replicate data for assays of individual inhibitor concentrations were plotted in KaleidaGraph (Synergy Software) for comparison and obvious outliers were culled from the analysis. The remaining data were averaged to yield one trace for each inhibitor concentration. The average data were combined into a dataset that included all assayed inhibitor concentrations for each MMP paralog. […]
(§3) The error was calculated by propagating the error for ratios of rate constants derived from fitting.
Experimental for MMP-9: as §1, §2, §3

Regarding `N[C@@H](Cc1ccc(B(O)O)cc1)C(=O)O` [BPA, L-boronophenylalanine, reference compound], the “D37 absorbed dose (dose used to inhibit 63% colony formation)” value in the data set with SCC VII tumor cells [1] (SCC VII after in vitro BNCT, pre-incubation 0.143 ppm 10B (1), 0.101 ppm 10B (2)) came to 0.82 Gy. In addition, the “Thermal neutron fluence yielding the D37 value” with SCC VII tumor cells [1] (SCC VII, BPA 20 ppm 10B, 4 0.48 ppm 10B (Figure 9)) is recorded as 6.0 × 10^11; in data set [3] (U87 MG delta EGFR, 4 0.48 ppm 10B (Figure 8)), 1.2 × 10^12; in data set [3] (U87 delta EGFR, 2 (B2) 0.7 ppm 10B (Figure 7)) it was 1.0 × 10^12. The IC50 (in general, the concentration that inhibits the measured activity by half) with SCC VII tumor cells [2] is 25500 µM. The Survival rate in data set [3] (thermal neutron fluence 2.7 × 10^12 cm^−2) was found to be 6.2 ± 1.4%; in data set [3] (thermal neutron fluence […] 10^12 cm^−2) it was 24.2 ± 7.7%.

With `COc1ccc(S(=O)(=O)N(CC(=O)NO)CC(C)C)cc1` [NNGH, N-isobutyl-N-(4-methoxyphenylsulfonyl)glycyl hydroxamic acid, reference compound], the IC50 worked out at 0.0028 ± 1.4e-05 µM at MMP-9 and 0.0085 ± 0.0011 µM on MMP-2.
